Results taken from US12037346B2, “Amino-substituted heteroaryls for treating cancers with EGFR mutations” (Nuvalent, Inc., priority 2021, dated 2024).

Tests used:
Format in all cases: cell-based
[1] = tested on: NCI-H1781 cells (HER2-A775_G776insV-G776C); experiment: Cell proliferation assay (CellTiter-Glo), NCI-H1781; details: first inflexion of biphasic curve
Description: (§1) Besides Ba/F3s, two commercially available cell lines were also used. NCI-H1781 is a HER2 exon20 insertion cell line bearing HER2-A775_G776insV-G776C. A431 bears amplification of the wild-type EGFR gene.
(§2) Ba/F3 cells were plated at 1,000 cells/well (40 μL), or NCI-H1781 or A431 cells were plated at 2,000 cells/well (40 μL), in a 384-well plate for 1 day. Test compounds (40 nL) were then added in a 3-fold dilution series using the TECAN EV0200 liquid handler and incubated for 48 hours (“2 days”), 72 hours (“3 days”), or 48 hours followed by renewal of compound solutions and further incubation for 72 hours (“2 days/3 days”). The 72-hour assay was necessary for NCI-H1781 cells, which are slow-growing, and the resupply of fresh compounds on day 3 obviated the potential confounding effects arising from compound degradation in cell media over 72 hours. Plates were equilibrated at room temperature for 15 minutes followed by addition of 40 μL CellTiter-Glo reagent (Promega). Luminescence was measured on a plate reader. Half-maximal inhibitory concentration (IC50) was calculated from percent inhibition and inhibitor concentration using four-parameter logistic regression. […] In these cases, the regression curve was drawn only for the first inflexion to accurately measure on-target growth inhibitory effect.
(§3) Ba/F3, NCI-H1781, and A431 proliferation is driven by the oncogenes in the same way that cancer cell proliferation in humans is driven by the expression of equivalent oncogenes.

[2] = tested on: A431 cells (amplification of the wild-type EGFR gene), phospho-ERK Thr202/Tyr204; experiment: Cellular phosphorylation assay, pERK (phospho-ERK Thr202/Tyr204 AlphaLISA) in A431; details: Homo sapiens, A-431, compound incubated for 5 hours
Description: as §1
(§4) Ba/F3 cells were plated at 50,000 cells/well (40 μL), or NCI-H1781 cells or A431 cells were plated at 12,500 cells/well (40 μL), in a 384-well plate for 1 day. Test compounds (40 nL) were then added in a 3-fold dilution series using the TECAN EV0200 liquid handler and incubated for 5 hours. Only for pEGFR analysis in A431, the cells were briefly stimulated with EGF (30 ng/mL) for 15 minutes. Media were removed using Apricot Designs. Phosphoproteins were analyzed using the phospho-EGFR Tyr1068 AlphaLISA kit (“pEGFR”; PerkinElmer #ALSU-PEGFR-B10K;) phospho-ERK Thr202/Tyr204 AlphaLISA kit (“pERK”; PerkinElmer #ALSU-PERK-A10K) or the phospho-ErbB2 Tyr1221/1222 AlphaLISA kit (“pHER2”; PerkinElmer #ALSU-PEB2-A10K;) according to the manufacturer's instructions. Briefly, cells were lysed with lysis buffer (10 μL) containing protease-inhibitor and phosphatase-inhibitor cocktails. The lysates were transferred into a new optical plate, incubated with the acceptor mix (5 μL) for 1.5-2 hours at room temperature in darkness, and then mixed with the donor mix (5 μL) overnight in darkness. Fluorescence was measured on a plate reader using the appropriate AlphaLISA settings. Half-maximal inhibitory concentration (IC50) was calculated from percent inhibition and inhibitor concentration using four-parameter logistic regression. […]

[3] = molecular target: T1, HER2-A775_G776insV-G776C (NCI-H1781 cells) (Homo sapiens, UniProt P04626, G776C/INS775V); experiment: Cellular phosphorylation assay, pHER2 (phospho-ErbB2 Tyr1221/1222 AlphaLISA) in NCI-H1781; details: compound incubated for 5 hours
T1 construct: NCI-H1781 is a HER2 exon20 insertion cell line bearing HER2-A775_G776insV-G776C; endogenous in cells; host or cells: NCI-H1781
T1 sequence (P04626 with tags, fused parts or gaps INS775V/G776C): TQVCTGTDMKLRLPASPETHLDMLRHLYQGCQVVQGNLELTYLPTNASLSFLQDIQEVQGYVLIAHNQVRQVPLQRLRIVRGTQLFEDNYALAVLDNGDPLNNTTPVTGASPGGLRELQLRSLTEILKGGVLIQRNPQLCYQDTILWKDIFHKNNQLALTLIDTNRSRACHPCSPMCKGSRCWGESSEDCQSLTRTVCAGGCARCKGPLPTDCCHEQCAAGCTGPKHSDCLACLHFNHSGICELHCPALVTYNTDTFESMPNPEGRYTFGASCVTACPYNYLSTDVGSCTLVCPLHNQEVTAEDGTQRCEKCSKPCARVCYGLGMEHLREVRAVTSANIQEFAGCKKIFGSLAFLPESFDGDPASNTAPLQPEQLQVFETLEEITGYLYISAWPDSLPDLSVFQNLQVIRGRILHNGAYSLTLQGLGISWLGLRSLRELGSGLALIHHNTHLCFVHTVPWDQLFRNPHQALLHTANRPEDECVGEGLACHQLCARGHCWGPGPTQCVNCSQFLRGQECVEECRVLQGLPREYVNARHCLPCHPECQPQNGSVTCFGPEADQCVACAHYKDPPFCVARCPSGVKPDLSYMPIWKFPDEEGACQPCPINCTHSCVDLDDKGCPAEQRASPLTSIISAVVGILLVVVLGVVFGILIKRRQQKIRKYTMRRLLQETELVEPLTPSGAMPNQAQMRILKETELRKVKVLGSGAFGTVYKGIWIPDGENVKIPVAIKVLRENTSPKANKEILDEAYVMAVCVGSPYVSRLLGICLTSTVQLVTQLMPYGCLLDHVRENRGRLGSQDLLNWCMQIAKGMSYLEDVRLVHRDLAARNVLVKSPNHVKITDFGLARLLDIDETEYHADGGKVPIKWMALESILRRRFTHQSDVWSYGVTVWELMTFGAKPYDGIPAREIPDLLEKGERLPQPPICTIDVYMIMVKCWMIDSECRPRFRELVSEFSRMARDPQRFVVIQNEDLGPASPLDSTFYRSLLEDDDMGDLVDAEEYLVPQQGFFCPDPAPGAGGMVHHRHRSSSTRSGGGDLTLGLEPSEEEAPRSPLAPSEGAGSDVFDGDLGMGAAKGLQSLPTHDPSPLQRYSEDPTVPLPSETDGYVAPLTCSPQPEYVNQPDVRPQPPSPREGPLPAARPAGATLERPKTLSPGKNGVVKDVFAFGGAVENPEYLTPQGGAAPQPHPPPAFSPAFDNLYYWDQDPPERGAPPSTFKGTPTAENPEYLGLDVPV
Description: as §1
Ba/F3 cells were plated at 50,000 cells/well (40 μL), or NCI-H1781 cells or A431 cells were plated at 12,500 cells/well (40 μL), in a 384-well plate for 1 day. Test compounds (40 nL) were then added in a 3-fold dilution series using the TECAN EV0200 liquid handler and incubated for 5 hours. Only for pEGFR analysis in A431, the cells were briefly stimulated with EGF (30 ng/mL) for 15 minutes. Media were removed using Apricot Designs. Phosphoproteins were analyzed using the phospho-EGFR Tyr1068 AlphaLISA kit (“pEGFR”; PerkinElmer #ALSU-PEGFR-B10K;) phospho-ERK Thr202/Tyr204 AlphaLISA kit (“pERK”; PerkinElmer #ALSU-PERK-A10K) or the phospho-ErbB2 Tyr1221/1222 AlphaLISA kit (“pHER2”; PerkinElmer #ALSU-PEB2-A10K;) according to the manufacturer's instructions. Briefly, cells were lysed with lysis buffer (10 μL) containing protease-inhibitor and phosphatase-inhibitor cocktails. The lysates were transferred into a new optical plate, incubated with the acceptor mix (5 μL) for 1.5-2 hours at room temperature in darkness, and then mixed with the donor mix (5 μL) overnight in darkness. Fluorescence was measured on a plate reader using the appropriate AlphaLISA settings. Half-maximal inhibitory concentration (IC50) was calculated from percent inhibition and inhibitor concentration using four-parameter logistic regression.
HER2 is phosphorylated when activated. Therefore, phospho-HER2 indicates HER2 activity in the cells.

[4] = molecular target: Ba/F3 HER2-YVMA cells (HER2-A775_G776insYVMA) (Homo sapiens, UniProt P04626, DUP772-775, cells depend on it); experiment: Cell proliferation assay (CellTiter-Glo), Ba/F3 HER2-YVMA; details: read-out: Ba/F3 HER2-YVMA cell proliferation IC50
Ba/F3 HER2-YVMA cells (HER2-A775_G776insYVMA), sequence (P04626 with tags, fused parts or gaps DUP772-775): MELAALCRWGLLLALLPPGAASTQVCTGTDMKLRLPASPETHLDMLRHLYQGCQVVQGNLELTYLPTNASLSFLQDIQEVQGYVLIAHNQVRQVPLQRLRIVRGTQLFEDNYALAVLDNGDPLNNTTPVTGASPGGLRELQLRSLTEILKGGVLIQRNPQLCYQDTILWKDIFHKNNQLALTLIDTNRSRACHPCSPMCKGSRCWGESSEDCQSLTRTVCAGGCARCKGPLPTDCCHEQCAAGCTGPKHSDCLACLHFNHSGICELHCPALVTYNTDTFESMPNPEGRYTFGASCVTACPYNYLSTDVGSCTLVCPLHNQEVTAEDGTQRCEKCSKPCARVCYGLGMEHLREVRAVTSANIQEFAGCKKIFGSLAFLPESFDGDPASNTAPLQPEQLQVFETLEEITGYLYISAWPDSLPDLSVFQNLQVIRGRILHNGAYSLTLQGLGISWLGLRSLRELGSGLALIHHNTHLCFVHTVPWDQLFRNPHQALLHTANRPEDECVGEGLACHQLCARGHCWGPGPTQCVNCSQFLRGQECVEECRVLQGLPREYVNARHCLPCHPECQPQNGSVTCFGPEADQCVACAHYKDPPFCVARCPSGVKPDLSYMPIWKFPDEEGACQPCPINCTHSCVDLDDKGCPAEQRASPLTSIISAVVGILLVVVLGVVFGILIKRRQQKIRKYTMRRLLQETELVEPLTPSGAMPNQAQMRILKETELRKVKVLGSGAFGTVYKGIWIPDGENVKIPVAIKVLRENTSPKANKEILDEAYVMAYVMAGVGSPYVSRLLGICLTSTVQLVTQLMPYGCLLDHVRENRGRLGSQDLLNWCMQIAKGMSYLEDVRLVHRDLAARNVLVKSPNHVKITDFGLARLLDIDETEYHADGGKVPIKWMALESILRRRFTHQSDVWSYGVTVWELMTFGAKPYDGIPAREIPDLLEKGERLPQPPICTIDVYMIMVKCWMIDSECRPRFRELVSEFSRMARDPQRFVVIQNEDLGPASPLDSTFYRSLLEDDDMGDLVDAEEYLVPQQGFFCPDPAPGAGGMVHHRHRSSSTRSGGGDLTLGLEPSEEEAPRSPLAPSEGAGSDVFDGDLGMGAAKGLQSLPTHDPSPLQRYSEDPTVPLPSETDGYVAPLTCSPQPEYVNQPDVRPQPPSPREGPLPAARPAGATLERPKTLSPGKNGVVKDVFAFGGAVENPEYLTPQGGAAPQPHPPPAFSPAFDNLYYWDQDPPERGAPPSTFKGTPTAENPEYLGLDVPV
Description: The gene encoding HER2-A775_G776insYVMA (“HER2-YVMA”) was synthesized at GeneRay, cloned into the retroviral construct pMSCV-puro (Biovector), and packaged into retroviral particles. The virus was used to infect Ba/F3 cells (RIKEN) at multiplicity of infection=1 or 10 for 1 day. Infected cells were rescued in media (RPMI-1640 with 10% fetal bovine serum and 1% streptomycin and penicillin) supplemented with mouse IL-3 (10 ng/mL) for 2 days, and stable cell lines were selected by IL-3 withdrawal and puromycin (0.8 μg/mL) for 7 days. Monoclones were selected by single-cell dilution in IL-3-free medium containing puromycin ([…]). Transformation of desired genes was confirmed by Sanger sequencing and western blot using the following antibody: HER2 (CST #2242).
as §2, §3

[5] = molecular target: T2, wild-type EGFR (A431 cells) (Homo sapiens, UniProt P00533); experiment: Cellular phosphorylation assay, pEGFR (phospho-EGFR Tyr1068 AlphaLISA) in A431; details: compound incubated for 5 hours, EGF (30 ng/mL) for 15 minutes
T2 construct: A431 bears amplification of the wild-type EGFR gene; endogenous in cells; host or cells: A431
T2 sequence (P00533 25-1210): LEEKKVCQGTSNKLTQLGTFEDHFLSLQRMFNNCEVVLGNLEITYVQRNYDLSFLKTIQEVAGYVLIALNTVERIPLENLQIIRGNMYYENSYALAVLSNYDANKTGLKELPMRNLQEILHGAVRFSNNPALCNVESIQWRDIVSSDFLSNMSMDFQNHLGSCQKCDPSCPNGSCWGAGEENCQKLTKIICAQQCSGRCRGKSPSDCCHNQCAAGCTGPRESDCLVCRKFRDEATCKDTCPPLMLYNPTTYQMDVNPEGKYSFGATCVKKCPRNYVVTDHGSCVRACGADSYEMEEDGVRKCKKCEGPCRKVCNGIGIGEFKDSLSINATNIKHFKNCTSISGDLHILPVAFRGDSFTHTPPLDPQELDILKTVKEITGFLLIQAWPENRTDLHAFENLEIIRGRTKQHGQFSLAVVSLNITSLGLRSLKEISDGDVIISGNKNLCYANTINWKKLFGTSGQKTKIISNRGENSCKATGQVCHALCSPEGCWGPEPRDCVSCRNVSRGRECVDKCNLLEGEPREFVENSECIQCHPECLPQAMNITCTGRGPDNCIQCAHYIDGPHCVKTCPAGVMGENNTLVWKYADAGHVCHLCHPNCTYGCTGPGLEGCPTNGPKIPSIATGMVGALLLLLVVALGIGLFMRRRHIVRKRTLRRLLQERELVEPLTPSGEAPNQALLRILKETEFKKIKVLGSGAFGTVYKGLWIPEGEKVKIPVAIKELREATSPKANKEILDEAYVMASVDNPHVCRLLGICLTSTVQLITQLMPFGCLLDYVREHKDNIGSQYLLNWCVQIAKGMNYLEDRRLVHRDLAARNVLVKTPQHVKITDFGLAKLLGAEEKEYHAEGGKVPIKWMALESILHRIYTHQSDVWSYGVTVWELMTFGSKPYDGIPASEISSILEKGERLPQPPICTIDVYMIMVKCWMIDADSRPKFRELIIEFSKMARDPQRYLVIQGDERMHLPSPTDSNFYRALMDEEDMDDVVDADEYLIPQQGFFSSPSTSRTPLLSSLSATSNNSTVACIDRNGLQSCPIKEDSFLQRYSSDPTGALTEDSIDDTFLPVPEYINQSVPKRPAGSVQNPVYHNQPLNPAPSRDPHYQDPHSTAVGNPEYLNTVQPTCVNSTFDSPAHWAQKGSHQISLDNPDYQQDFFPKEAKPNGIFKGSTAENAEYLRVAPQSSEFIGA
Description: as §1, §4

Compound | IC50 [1] [nM] | IC50 [2] [nM] | IC50 [3] [nM] | GI50 [4] [nM] | IC50 [5] [nM]
C=CC(=O)N1CCC=C(c2ccc3ncnc(Nc4ccc(Oc5ccn6ncnc6c5)c(C)c4)c3n2)CC1 [Example 1, 1-(4-[4-[(3-methyl-4-[[1,2,4]triazolo[1,5-a]pyridin-7-yloxy]phenyl)amino]pyrido[3,2-d]pyrimidin-6-yl]-2,3,6,7-tetrahydroazepin-1-yl)prop-2-en-1-one] | < 100 | 100 to 500 | < 100 | < 100 | 100 to 500
CC#CC(=O)N1CC=C(c2ccc3ncnc(Nc4ccc(Oc5ccn6ncnc6c5)c(C)c4)c3n2)CC1 [Example 2, 1-(4-(4-((4-([1,2,4]triazolo[1,5-a]pyridin-7-yloxy)-3-methylphenyl)amino)pyrido[3,2-d]pyrimidin-6-yl)-3,6-dihydropyridin-1(2H)-yl)but-2-yn-1-one] | < 100 | 500 to 1000 | < 100 | < 100 | 500 to 1000
C=CC(=O)N1CC=C(c2ccc3ncnc(Nc4ccc(Oc5ccn6ncnc6c5)c(C)c4F)c3n2)CC1 [Example 5] | 100 to 500 | ≥ 1000 | < 100 | < 100 | ≥ 1000
C=CC(=O)N1CCN(c2ccc3ncnc(Nc4ccc(Oc5ccn6ncnc6c5)c(C)c4)c3n2)CC1 [Example 9] | < 100 | 500 to 1000 | < 100 | < 100 | 100 to 500
C=CC(=O)N1CC=C(c2ccc3ncnc(Nc4ccc(Oc5ccn6ncnc6c5)c(C)c4)c3n2)CC1 [Example 12] | < 100 | 500 to 1000 | < 100 | < 100 | 500 to 1000
Cc1cc(Nc2ncnc3ccc(C4=CCN(C(=O)/C=C/CN(C)C)CC4)nc23)ccc1Oc1ccn2ncnc2c1 [Example 13] | < 100 | ≥ 1000 | < 100 | < 100 | 100 to 500
C=CC(=O)N1CCCN(c2ccc3ncnc(Nc4ccc(Oc5ccn6ncnc6c5)c(C)c4)c3n2)CC1 [Example 14] |  | ≥ 1000 | < 100 | 100 to 500 | ≥ 1000
C=CC(=O)N1CC=C(c2ncc3ncnc(Nc4ccc(Oc5ccn6ncnc6c5)c(C)c4)c3n2)CC1 [Example 18] | < 100 | 500 to 1000 | < 100 | < 100 | 500 to 1000
C=CC(=O)N1CC=C(c2ccc3ncnc(Nc4ccc(Oc5ccn6ncnc6c5)c(C)c4)c3c2OC)CC1 [Example 19] |  |  | < 100 | 100 to 500 | ≥ 1000
C=CC(=O)N1CC=C(c2ccc3ncnc(Nc4ccc(Oc5ccn6ncnc6c5)c(C)c4)c3n2)C1 [Example 21] | 100 to 500 | ≥ 1000 | < 100 | 100 to 500 | ≥ 1000
C=CC(=O)N1CC2(C1)CN(c1ccc3ncnc(Nc4ccc(Oc5ccn6ncnc6c5)c(C)c4)c3n1)C2 [Example 23] |  |  | < 100 | 500 to 1000 | ≥ 1000
C=CC(=O)N1CCN(c2ncc3ncnc(Nc4ccc(Oc5ccn6ncnc6c5)c(C)c4F)c3n2)C[C@@H]1C [Example 49] | < 100 | ≥ 1000 | < 100 | < 100 | ≥ 1000
C=CC(=O)N1CCN(c2ncc3ncnc(Nc4cc(C)c(Oc5ccn6ncnc6c5)cc4F)c3n2)C[C@H]1C [Example 50] | 100 to 500 |  | < 100 |  | ≥ 1000
C=CC(=O)N1CCN(c2ncc3ncnc(Nc4cc(C)c(Oc5cc(C)n6ncnc6c5)cc4F)c3n2)C[C@H]1C [Example 51] |  | ≥ 1000 | < 100 | < 100 | ≥ 1000
C=CC(=O)N1CCN(c2ncc3ncnc(Nc4ccc(Oc5ccn6ncnc6c5)c(C)c4F)c3c2F)C[C@H]1C [Example 52] | < 100 | ≥ 1000 | < 100 | < 100 | ≥ 1000
C=CC(=O)N1CCN(c2ccc3ncnc(Nc4ccc(Oc5ccn6ncnc6c5)c(C)c4F)c3c2F)C[C@H]1C [Example 53] | < 100 | ≥ 1000 | < 100 | < 100 | ≥ 1000
C=CC(=O)N1CCC(c2ncc3ncnc(Nc4ccc(Oc5ccn6ncnc6c5)c(C)c4F)c3n2)=C[C@@H]1C [Example 54] | < 100 | 100 to 500 | < 100 | < 100 | 500 to 1000
C=CC(=O)N1CCC(c2ncc3ncnc(Nc4ccc(Oc5ccn6ncnc6c5)c(C)c4F)c3n2)=C[C@H]1C [Example 55] |  | 100 to 500 | < 100 | < 100 | ≥ 1000
C=CC(=O)N1CCC=C(c2ncc3ncnc(Nc4ccc(Oc5ccn6ncnc6c5)c(C)c4F)c3n2)CC1 [Example 56] |  |  | < 100 | < 100 | 500 to 1000
C=CC(=O)N1CC=C(c2ncc3ncnc(Nc4cc(C)c(Oc5ccn6ncnc6c5)cc4F)c3n2)C[C@@H]1C [Example 59] |  |  | < 100 | 500 to 1000 | ≥ 1000
C=CC(=O)N1CCC(c2ncc3ncnc(Nc4ccc(Oc5ccn6ncnc6c5)c(C(F)F)c4F)c3n2)=C[C@@H]1C [Example 60] |  | ≥ 1000 | < 100 | < 100 | 500 to 1000
C=CC(=O)N1CCC(c2ncc3ncnc(Nc4ccc(Oc5ccn6ncnc6c5)c(C(F)(F)F)c4F)c3n2)=C[C@@H]1C [Example 62] |  | ≥ 1000 | < 100 | < 100 | ≥ 1000
C=CC(=O)N1CCN(c2ncc3ncnc(Nc4ncc(Oc5ccn6ncnc6c5)c(C)c4F)c3n2)C[C@H]1C [Example 63] |  | ≥ 1000 | 100 to 500 | 500 to 1000 | ≥ 1000
C=CC(=O)N1CCN(c2ccc3ncnc(Nc4ncc(Oc5ccn6ncnc6c5)c(C)c4F)c3c2F)C[C@H]1C [Example 64] |  | ≥ 1000 | < 100 | 100 to 500 | ≥ 1000
